{
  "source": "patent US20080085333A1",
  "about": "“Composition Comprising Extract of Anemarrhena Asphodeloides and Aralia Elata,and Use Thereof” (MEDVILL CO., LTD., priority 2004, published 2008)",
  "key": {"[1]": {"tested_on": "PGE2 production in mouse macrophage cell line Raw264.7", "experiment": "Inhibition of LPS-induced PGE2 production in macrophages (ELISA)", "assay_type": "cell-based", "conditions": "Raw264.7, extract 1 hour before LPS, LPS 16 hours, read-out: IC50 for inhibition of PEG2 production", "source_text": "The effect of the inventive water or organic solvent extract of Anemarrhena asphodeloides and Aralia elata on the production of PGE2 (prostaglandin E2) in mouse macrophages was examined to measure a concentration at which a 50% inhibitory effect is shown. The PGE2 is a substance synthesized by a COX-2 enzyme in macrophages permeated skin when infected with foreign substances or germs, and the degree of inflammation and the secreted amount of PGE2 are closely connected with each other. Namely, as inflammation becomes more severe, the secretion of PGE2 increases.\nMeanwhile, when mouse macrophage cell line Raw264.7 (obtained from Korean Cell Line Bank) is cultured in RPMI medium while it is treated with LPS (lipopolysaccharide) for 16 hours, the production of PGE2 will increase. Thus, 1 hour before the macrophage cell line was treated with LPS, the macrophage cell line was treated with each of the water extract of Anemarrhena asphodeloides or water extract of Aralia elata prepared in Example 1, the water extract of Anemarrhena asphodeloides and Aralia elata prepared in Example 2 and the ethanol extract of Anemarrhena asphodeloides and Aralia elata prepared in Example 3, at varying concentrations of 5 mg/ml, 1 mg/ml, 500 μg/ml, 100 μg/ml, 50 μg/ml and 10 μg/ml, and then measured for the amount of PEG2 produced. […]"}, "[2]": {"tested_on": "Propionibacterium acnes (KCTC 3314)", "experiment": "Minimum inhibitory concentration in BHI broth, anaerobic culture, O.D. 660 nm", "assay_type": "cell-based", "conditions": "37° C., 48-72 hours", "description": "To measure the antibacterial effect of the inventive extract against Propionibacterium acnes, […] of BHI (brain heart infusion) broth was inoculated with a culture of Propionibacterium acnes (KCTC 3314) at a concentration of 1% (v/v). Then, the inoculated broth was treated with each of the water extract of Anemarrhena asphodeloides or water extract of Aralia elata prepared in Example 1, the water extract of Anemarrhena asphodeloides and Aralia elata prepared in Example 2 and the ethanol extract of Anemarrhena asphodeloides and Aralia elata prepared in Example 3 at varying concentrations of 0.1%, 1%, 5%, 10% and 20%. A negative control group was treated with physiological saline. […] As positive control groups, erythromycin and triclosan, which are known to have antiacne effect, were used."}},
  "data": [
    {"smiles": "CC(=O)Oc1ccccc1C(=O)O", "note": "[aspirin]", "values": [
      {"measurement": "IC50", "setting": "[1]", "value": 48, "unit": "µg/mL"}
    ]},
    {"smiles": "CC[C@H]1OC(=O)[C@H](C)[C@@H](O[C@H]2C[C@@](C)(OC)[C@@H](O)[C@H](C)O2)[C@H](C)[C@@H](O[C@@H]2O[C@H](C)C[C@H](N(C)C)[C@H]2O)[C@](C)(O)C[C@@H](C)C(=O)[C@H](C)[C@@H](O)[C@]1(C)O", "note": "[erythromycin]", "values": [
      {"measurement": "MIC", "setting": "[2]", "value": "0.0005 ppm, v/v"}
    ]},
    {"smiles": "Oc1cc(Cl)ccc1Oc1ccc(Cl)cc1Cl", "note": "[triclosan]", "values": [
      {"measurement": "MIC", "setting": "[2]", "value": "0.001 ppm, v/v"}
    ]}
  ]
}
